Entries after “also recorded” stand apart in the source; their conditions may differ.
What was measured:
writhing response = assay: animal or person; format: in vivo, mouse; details: for ED50: Mus musculus, Table 7, read-out: ED50, Acetic Acid Induced Writhing in the Mouse
mu-type opioid receptor = biological target: T1, mu-type opioid receptor (Rattus norvegicus, UniProt P33535); assay: inhibition of specific [^3 H] DAGO binding to rat forebrain membranes; details: (Ki) nM, μ receptor (Rat Forebrain), Table 6; [^3 H] DAGO, mean of three experiments
T1 construct: using rat forebrain membranes; from tissue; host or cells: rat forebrain membranes
Experimental: (§1) The interaction of some of the novel compounds with mu and delta-type opioid receptors present in brain membranes was examined in vitro. […] DAGO (mu-type receptor) or [^3 H] DADLE (delta-type receptor) was determined using rat forebrain membranes. Computer assisted analysis (EBDA) was used to determine apparent Ki values for the various compounds.
(§2) Values represent the MEAN±S.E.M. of the Ki(nM) for each compound to inhibit specific binding of the indicated ligand to rat brain membranes. The values are from two-five separate experiments and were calculated according to the method of Cheng and Prusoff [Biochem. Pharmacol. 1973, 22, 3099-3108] together with the EBDA Program. Numbers in parentheses are the mean Hill coefficients for each compound to inhibit ligand binding.
as §2, with “two.div.seven” for “two-five”, “Prusoff” for “Prusoff [Biochem. Pharmacol. 1973, 22, 3099-3108]”, “program.” for “Program.”, “binding. N.D.=not determined” for “binding.”
(§3) The interaction of some of the novel compounds with mu, delta and kappa - type opioid receptors present in brain membranes was examined in vitro. […] DAGO (mu-type receptor), or [^3 H] DADLE (Delta-type receptor) using rat forebrain membranes and [^3 H] EKC (kappa-type receptor) using guiniea pig cerebellum membrane was determined. Computer assisted analysis (EBDA) was used to determine apparent Ki values for the various compounds.
(§4) The values represent the MEAN±S.E.M. of the Ki(nM) for each compound to inhibit specific binding of the indicated ligand. Each value represents the mean of three individual experiments performed on separate occasions.

[1] = biological target: delta-type opioid receptor (Rattus norvegicus, UniProt P33533); assay: inhibition of specific [^3 H] DADLE binding to rat forebrain membranes; details: read-out: (Ki) nM, δ receptor (Rat Forebrain); Table 6; [^3 H] DADLE, mean of three experiments
Experimental: as §1, §2
as §2, with “two.div.seven” for “two-five”, “Prusoff” for “Prusoff [Biochem. Pharmacol. 1973, 22, 3099-3108]”, “program.” for “Program.”, “binding. N.D.=not determined” for “binding.”
as §3, §4

[2] = biological target: T2, kappa-type opioid receptor (Cavia porcellus, UniProt P41144); assay: inhibition of specific [^3 H] EKC binding to guinea pig cerebellum membrane
T2 construct: using guiniea pig cerebellum membrane; from tissue; host or cells: guinea pig cerebellum membranes
Experimental: as §3, §4

tail flick response = assay: radiant heat tail flick analgesia in rats; format: in vivo, rat
Experimental: The analgesic properties of the compounds prepared in accordance with Examples III and IV were evaluated in rats using the radiant heat and tail flick paradigm. […] Flick latencies in FIGS. 11-13 were determined at 30 minute intervals through 3.5 h and the data was expressed as a percentage of the maximum possible effect (% MPE). A 15 sec. cut-off latency was used to minimize tissue damage. The values shown are the mean values for 6 rats.
A 15 sec. cut-off latency was used to prevent tissue damage.
The analgesic properties of compounds XXII and XXIII were evaluated in rats using the writhing assay and tail flick paradigm. […] The writhing assay which uses a chemical stimulus to produce pain, is believed to be more sensitive to kappa agonist activity than other measures of analgesia which uses a heat stimulus (Dykstra, L.A. Behavioral Pharmacology: The Current Status, N.Y.: Allan R. Liss. Inc. 1985).

[3] = tested on: oxymorphonazine (OMZ)-induced analgesia; assay: antagonism of oxymorphonazine (OMZ)-induced analgesia (tail flick) in rats; format: in vivo, rat; details: for ED50 / ED100: Rattus norvegicus, sc, Table 8; for ED50 / ED100 / Percent Antagonism at 1 Hr / Percent Antagonism at 1.5 Hr / Percent Antagonism at 2 Hr / Percent Antagonism at 3 Hr / Percent Antagonism at 4 Hr / Percent Antagonism at 6 Hr / Percent Antagonism at 8 Hr: S.C.; for ED50: read-out: ED 50, oxymorphonazine antagonism; for ED100: read-out: ED 100, oxymorphonazine antagonism; for Percent Antagonism at 1 Hr / Percent Antagonism at 1.5 Hr / Percent Antagonism at 2 Hr / Percent Antagonism at 3 Hr / Percent Antagonism at 4 Hr / Percent Antagonism at 6 Hr / Percent Antagonism at 8 Hr: dose tested (mg/kg): Naltrexone 0.5, Nalmefene 1.0, XI 10.0, XII 2.5, XIII 0.5, XIV 5.0
Experimental: The compound of Example XII was evaluated for its potency and duration in the antagonism of oxymorphonazine (OMZ)-induced analgesia. […] Data represent the mean SEM of 4-5 animals per group.
(Cowan A. Trendsin Pharmacology Science, 7:69-72, 1986) With this test the intracerebroventricular administration of bombesin produces a characteristic scratching response.

[4] = water intake in 24 hr food-deprived rats; format: in vivo, rat; details: for effect on water intake: S.C.; for Water Intake: Table 3, 24 hr; for Cumulative Water Intake: Table 5
Experimental: (§5) Rats were given water and powdered food ad lib for 8 days until food intake had stabilized, and body weight and food and water intakes were recorded at the same time every day. Animals were assigned to treatment groups matched on the basis of their 24 hr food consumption on the last baseline day, and rats were food deprived for 24 hr immediately before injection of the test compound. […] The compound of Example XII was injected S.C. at doses of 1.15, 2.31, 11.55 and 23.09 μmol/kg, in a volume of 4 ml/kg of 0.3% acetic acid. Controls were injected with the vehicle solutions in the appropriate volumes. Food and water intakes were measured at 1, 3 and 24 hr after treatment. Data for each measure and time point were analyzed by one-way analysis of variance (ANOVA), and post-hoc comparisons were performed using Dunnett's test in order to compare the control mean to each of the treatment means.
(§6) Rats were given water and powdered food for 8 days, and following this,
(§7) Testing was performed as described above, and baseline measurements were recorded for 7 days. […] The compound of Example XII was injected at doses of 11.55, 23.09, 46.19 and 92.38 μmol/kg by suspension in a solution of 1:1 DMSO:water in a volume of 3 ml/kg. Food and water intakes were recorded at 1, 2, 4 and 6 h following treatment.
See Table 3 for experimental details, except that baseline measurements

[5] = food intake in 24 hr food-deprived rats; format: in vivo, rat; details: for Food Intake in Grams: Table 3, 24 hr; for Cumulative Food Intake in Grams: Table 4
Experimental: as §5, §6, §7
See Table 3 for experimental details, except that baseline measures were […]

T2 sequence (P41144 whole entry): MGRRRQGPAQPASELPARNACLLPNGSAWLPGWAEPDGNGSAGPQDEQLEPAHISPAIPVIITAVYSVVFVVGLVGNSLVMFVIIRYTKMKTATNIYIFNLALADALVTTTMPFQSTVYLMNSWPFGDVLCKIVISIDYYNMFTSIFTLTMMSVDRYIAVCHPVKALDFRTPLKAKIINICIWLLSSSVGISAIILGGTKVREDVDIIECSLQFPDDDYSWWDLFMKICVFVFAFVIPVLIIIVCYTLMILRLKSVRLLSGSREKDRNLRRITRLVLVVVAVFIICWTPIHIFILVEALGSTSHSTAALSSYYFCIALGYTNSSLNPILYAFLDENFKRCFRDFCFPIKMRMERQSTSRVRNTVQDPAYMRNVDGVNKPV
T1 sequence (P33535 whole entry): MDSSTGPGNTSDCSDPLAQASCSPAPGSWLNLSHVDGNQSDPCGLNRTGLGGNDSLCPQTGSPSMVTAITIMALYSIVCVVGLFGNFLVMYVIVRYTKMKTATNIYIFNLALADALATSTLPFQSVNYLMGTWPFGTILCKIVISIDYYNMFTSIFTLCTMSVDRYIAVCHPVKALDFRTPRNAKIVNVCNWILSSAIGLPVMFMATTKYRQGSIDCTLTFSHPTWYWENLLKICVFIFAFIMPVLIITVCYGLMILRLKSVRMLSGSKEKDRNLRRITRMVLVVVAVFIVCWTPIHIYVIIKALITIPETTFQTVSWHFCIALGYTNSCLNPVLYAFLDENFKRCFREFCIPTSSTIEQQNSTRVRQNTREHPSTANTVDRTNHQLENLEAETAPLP
Chain of delta-type opioid receptor (P33533 whole entry): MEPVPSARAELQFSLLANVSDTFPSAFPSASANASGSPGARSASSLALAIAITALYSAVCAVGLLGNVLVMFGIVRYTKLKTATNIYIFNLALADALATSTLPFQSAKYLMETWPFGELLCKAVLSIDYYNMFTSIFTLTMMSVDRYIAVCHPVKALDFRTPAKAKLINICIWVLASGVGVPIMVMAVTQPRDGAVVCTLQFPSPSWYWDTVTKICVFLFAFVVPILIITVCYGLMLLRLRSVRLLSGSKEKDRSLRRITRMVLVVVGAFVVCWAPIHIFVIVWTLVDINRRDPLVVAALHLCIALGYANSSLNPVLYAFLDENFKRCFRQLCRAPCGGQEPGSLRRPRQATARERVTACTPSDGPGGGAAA

Oc1ccc2c3c1O[C@H]1C(=NOCCc4ccccc4)CC[C@@]4(O)[C@@H](C2)N(CC2CC2)CC[C@]314 [Example XXII, 6-[2-phenethyl]oximino-17-cyclopropylmethyl-4,5 α-epoxy-3,14-dihydroxymorphinan]
ED50 (writhing response): 0.01 mg/kg
potency versus morphine to antagonize writhing response (writhing response; mouse, in vivo, ip): more potent than morphine to antagonize the writhing response
kappa selectivity and agonist activity (writhing response; writhing and tail flick): selective to kappa receptors and possess kappa agonist activity
Ki (mu-type opioid receptor): 0.88 nM
Ki [1]: 0.6 nM
Ki [2]: 0.28 nM
fold more potent to inhibit specific [3H]EKC ([2]; than other compounds or naltrexone): 3 fold
ED50 (tail flick response; Rattus norvegicus, Table 7, read-out: ED50, Antagonism of the Tail-Flick Response in the Rat): 4.02 mg/kg
antagonism of tail-flick response to heat (tail flick response; rat): effectively antagonized the tail-flick response to a heat stimulus in the rat

C=C1CC[C@@]2(O)[C@H]3Cc4ccc(O)c5c4[C@@]2(CCN3CC2CC2)[C@H]1O5 [Nalmefene, reference compound]
ED50 (writhing response): > 30 mg/kg
Ki (mu-type opioid receptor): 0.64 nM
Ki [1]: 0.87 nM
Ki [2]: 0.89 nM
ED50 [3]: 0.12 mg/kg
ED100 [3]: 1.35 mg/kg
Percent Antagonism at 1 Hr [3]: 85%
Percent Antagonism at 1.5 Hr [3]: 92%
Percent Antagonism at 2 Hr [3]: 83%
Percent Antagonism at 3 Hr [3]: 73%
Percent Antagonism at 4 Hr [3]: 46%
Percent Antagonism at 6 Hr [3]: 0%
Percent Antagonism at 8 Hr [3]: 37%

O=C1CC[C@@]2(O)[C@H]3Cc4ccc(O)c5c4[C@@]2(CCN3CC2CC2)[C@H]1O5 [Naltrexone, naltrexone]
ED50 (writhing response): > 30 mg/kg
effect on water intake ([4]; 1 and 3 hr, lower dose experiment (FIGS. 24, 25)): inhibited drinking at all doses tested at the 1 and 3 hr time points
effect on water intake ([4]; 1 and 3 hr, lower dose experiment (FIGS. 24, 25), listed as naltrexone): effectively inhibited drinking at all doses tested during the first three hours after administration
effect on water intake ([4]; higher dose time course experiment, 0-6 hr): significant effects at 0-1 hr, 0-2 hr and 0-4 hr
Water Intake ([4]; S.C. 1.47 μmol/kg): 69.0 ± 3.5 mL
Water Intake ([4]; S.C. 2.93 μmol/kg): 62.4 ± 3.8 mL
Water Intake ([4]; S.C. 14.66 μmol/kg): 53.4 ± 5.5 mL
Water Intake ([4]; S.C. 29.33 μmol/kg): 66.0 ± 2.8 mL
Cumulative Water Intake ([4]; S.C. 14.66 μmol/kg, 0-1 Hr): 5.2 ± 1.1 mL
Cumulative Water Intake ([4]; S.C. 14.66 μmol/kg, 0-2 Hr): 9.2 ± 1.1 mL
Cumulative Water Intake ([4]; S.C. 14.66 μmol/kg, 0-4 Hr): 15.2 ± 2.0 mL
Cumulative Water Intake ([4]; S.C. 14.66 μmol/kg, 0-6 Hr): 22.8 ± 2.1 mL
Cumulative Water Intake ([4]; S.C. 29.33 μmol/kg, 0-1 Hr): 5.2 ± 0.6 mL
Cumulative Water Intake ([4]; S.C. 29.33 μmol/kg, 0-2 Hr): 8.4 ± 0.5 mL
Cumulative Water Intake ([4]; S.C. 29.33 μmol/kg, 0-4 Hr): 15.2 ± 1.1 mL
Cumulative Water Intake ([4]; S.C. 29.33 μmol/kg, 0-6 Hr): 21.6 ± 3.1 mL
Cumulative Water Intake ([4]; S.C. 58.65 μmol/kg, 0-1 Hr): 3.6 ± 0.8 mL
Cumulative Water Intake ([4]; S.C. 58.65 μmol/kg, 0-2 Hr): 6.8 ± 0.6 mL
Cumulative Water Intake ([4]; S.C. 58.65 μmol/kg, 0-4 Hr): 13.2 ± 1.3 mL
Cumulative Water Intake ([4]; S.C. 58.65 μmol/kg, 0-6 Hr): 22.4 ± 2.6 mL
Cumulative Water Intake ([4]; S.C. 117.30 μmol/kg, 0-1 Hr): 3.6 ± 0.8 mL
Cumulative Water Intake ([4]; S.C. 117.30 μmol/kg, 0-2 Hr): 9.2 ± 0.9 mL
Cumulative Water Intake ([4]; S.C. 117.30 μmol/kg, 0-4 Hr): 16.0 ± 1.6 mL
Cumulative Water Intake ([4]; S.C. 117.30 μmol/kg, 0-6 Hr): 26.8 ± 3.4 mL
effect on feeding ([5]; S.C., 1, 3 and 24 hr, lower dose experiment (FIGS. 22, 23)): 14.66 and 29.33 μmol/kg doses of naltrexone inhibited feeding at 3 hr following treatment
effect on feeding ([5]; S.C., higher dose time course experiment, 0-6 hr): at all doses decreased feeling up to 4 hr after administration, and the two lower doses also decreased feeding at 6 hr post treatment
Food Intake in Grams ([5]; S.C. 1.47 μmol/kg): 33.0 ± 0.7 Grams
Food Intake in Grams ([5]; S.C. 2.93 μmol/kg): 33.2 ± 3.0 Grams
Food Intake in Grams ([5]; S.C. 14.66 μmol/kg): 37.6 ± 4.2 Grams
Food Intake in Grams ([5]; S.C. 29.33 μmol/kg): 40.7 ± 8.2 Grams
Cumulative Food Intake in Grams ([5]; S.C. 14.66 μmol/kg, 0-1 Hr): 3.6 ± 0.5 Grams
Cumulative Food Intake in Grams ([5]; S.C. 14.66 μmol/kg, 0-2 Hr): 3.6 ± 0.5 Grams
Cumulative Food Intake in Grams ([5]; S.C. 14.66 μmol/kg, 0-4 Hr): 4.0 ± 0.0 Grams
Cumulative Food Intake in Grams ([5]; S.C. 14.66 μmol/kg, 0-6 Hr): 5.2 ± 0.6 Grams
Cumulative Food Intake in Grams ([5]; S.C. 29.33 μmol/kg, 0-1 Hr): 3.2 ± 0.6 Grams
Cumulative Food Intake in Grams ([5]; S.C. 29.33 μmol/kg, 0-2 Hr): 3.2 ± 0.6 Grams
Cumulative Food Intake in Grams ([5]; S.C. 29.33 μmol/kg, 0-4 Hr): 4.4 ± 0.5 Grams
Cumulative Food Intake in Grams ([5]; S.C. 29.33 μmol/kg, 0-6 Hr): 5.2 ± 0.9 Grams
Cumulative Food Intake in Grams ([5]; S.C. 58.65 μmol/kg, 0-1 Hr): 2.8 ± 1.1 Grams
Cumulative Food Intake in Grams ([5]; S.C. 58.65 μmol/kg, 0-2 Hr): 2.8 ± 1.1 Grams
Cumulative Food Intake in Grams ([5]; S.C. 58.65 μmol/kg, 0-4 Hr): 3.2 ± 0.9 Grams
Cumulative Food Intake in Grams ([5]; S.C. 58.65 μmol/kg, 0-6 Hr): 6.4 ± 0.5 Grams
Cumulative Food Intake in Grams ([5]; S.C. 117.30 μmol/kg, 0-1 Hr): 3.6 ± 0.8 Grams
Cumulative Food Intake in Grams ([5]; S.C. 117.30 μmol/kg, 0-2 Hr): 3.6 ± 0.8 Grams
Cumulative Food Intake in Grams ([5]; S.C. 117.30 μmol/kg, 0-4 Hr): 4.8 ± 0.9 Grams
Cumulative Food Intake in Grams ([5]; S.C. 117.30 μmol/kg, 0-6 Hr): 7.6 ± 1.3 Grams
food intake in 4-6 hr interval ([5]; food intake/2 hr interval, FIGS. 26 and 27): rats treated with the two highest doses of naltrexone are beginning to resume feeding; also recorded: an increase in food consumption at some doses compared to controls
time course of antagonism of OMZ-induced analgesia, PO ([3]; PO, naltrexone 26.53 μmol/kg): a trend for progressive loss of the antagonistic effect over 0.5-4.0 hours, although the reversal was not complete by eight hours
ED50 [3]: 0.07 mg/kg
ED100 [3]: 0.62 mg/kg
Percent Antagonism at 1 Hr [3]: 98%
Percent Antagonism at 1.5 Hr [3]: 76%
Percent Antagonism at 2 Hr [3]: 79%
Percent Antagonism at 3 Hr [3]: 47%
Percent Antagonism at 4 Hr [3]: 30%
Percent Antagonism at 6 Hr [3]: 4%
Percent Antagonism at 8 Hr [3]: 4%
duration of antagonism of OMZ-induced analgesia, SC ([3]; SC, naltrexone 1.33 μmol/kg, OMZ 19 μmol/kg SC): up to 1 hr
